Data published in ChEMBL document CHEMBL1142478, “Small molecule modulators of toll-like receptors” (J Med Chem, 2008).
Values belong to the compound of their own block, whether it stands above or below them. Activity calls are given as the source filed them. No cut-off for these calls is given here. Where a SMILES comes first, the peptide text is derived from it. The star is where a group is joined. X1 = CCCCCCCCCCCCCC(=O)N[C@@H](C*)C(=O)NCCCCCCCC; Myristoyl = CCCCCCCCCCCCCC(=O)*

Columns and labels:
[1] = target: Toll-like receptor 4 (Mus musculus) (UniProt Q9QUK6); assay: Inhibition of mouse TLR4-mediated cytokine production in mouse macrophages
Toll-like receptor 7 [2] = target: T1, Toll-like receptor 7 (Homo sapiens, UniProt Q9NYK1); assay: (§1) Agonist activity at human TLR7 by luciferase reporter gene assay; type: functional
T1 sequence (Q9NYK1 whole entry): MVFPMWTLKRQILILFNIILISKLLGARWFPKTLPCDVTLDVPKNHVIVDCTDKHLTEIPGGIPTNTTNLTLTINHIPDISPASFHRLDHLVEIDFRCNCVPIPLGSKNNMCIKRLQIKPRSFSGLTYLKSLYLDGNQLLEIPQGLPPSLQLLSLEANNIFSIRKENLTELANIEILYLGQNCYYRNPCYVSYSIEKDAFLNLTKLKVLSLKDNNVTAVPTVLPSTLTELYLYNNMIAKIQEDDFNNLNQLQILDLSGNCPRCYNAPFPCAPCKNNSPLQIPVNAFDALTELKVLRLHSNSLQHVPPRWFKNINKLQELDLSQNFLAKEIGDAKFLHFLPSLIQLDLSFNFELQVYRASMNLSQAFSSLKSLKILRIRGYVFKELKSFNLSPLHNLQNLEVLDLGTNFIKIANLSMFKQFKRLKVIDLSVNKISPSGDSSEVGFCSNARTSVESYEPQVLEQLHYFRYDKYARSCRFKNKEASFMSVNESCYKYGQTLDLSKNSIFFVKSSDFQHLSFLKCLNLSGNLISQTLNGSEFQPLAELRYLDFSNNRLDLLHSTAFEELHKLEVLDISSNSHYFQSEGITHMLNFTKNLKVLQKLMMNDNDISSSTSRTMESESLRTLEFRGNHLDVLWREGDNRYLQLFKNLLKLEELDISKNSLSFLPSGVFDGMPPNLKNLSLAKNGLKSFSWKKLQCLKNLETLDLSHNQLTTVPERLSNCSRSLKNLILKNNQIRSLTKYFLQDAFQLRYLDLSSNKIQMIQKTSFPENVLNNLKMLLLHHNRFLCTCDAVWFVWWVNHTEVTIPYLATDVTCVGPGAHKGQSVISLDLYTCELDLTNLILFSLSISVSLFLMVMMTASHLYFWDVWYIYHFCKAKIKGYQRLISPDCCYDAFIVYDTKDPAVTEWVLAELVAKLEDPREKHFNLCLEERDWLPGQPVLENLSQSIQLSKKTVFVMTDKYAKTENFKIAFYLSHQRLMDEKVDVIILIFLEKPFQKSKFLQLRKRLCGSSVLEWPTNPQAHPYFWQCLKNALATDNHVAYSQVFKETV

Toll-like receptor 4 [3] = target: T2, Toll-like receptor 4 (Homo sapiens, UniProt O00206); assay: Antagonist activity at human TLR4 expressed in HE293 cells by ELAM1-luciferase reporter gene assay; type: functional, cell-based, HEK293
T2 sequence (O00206 whole entry): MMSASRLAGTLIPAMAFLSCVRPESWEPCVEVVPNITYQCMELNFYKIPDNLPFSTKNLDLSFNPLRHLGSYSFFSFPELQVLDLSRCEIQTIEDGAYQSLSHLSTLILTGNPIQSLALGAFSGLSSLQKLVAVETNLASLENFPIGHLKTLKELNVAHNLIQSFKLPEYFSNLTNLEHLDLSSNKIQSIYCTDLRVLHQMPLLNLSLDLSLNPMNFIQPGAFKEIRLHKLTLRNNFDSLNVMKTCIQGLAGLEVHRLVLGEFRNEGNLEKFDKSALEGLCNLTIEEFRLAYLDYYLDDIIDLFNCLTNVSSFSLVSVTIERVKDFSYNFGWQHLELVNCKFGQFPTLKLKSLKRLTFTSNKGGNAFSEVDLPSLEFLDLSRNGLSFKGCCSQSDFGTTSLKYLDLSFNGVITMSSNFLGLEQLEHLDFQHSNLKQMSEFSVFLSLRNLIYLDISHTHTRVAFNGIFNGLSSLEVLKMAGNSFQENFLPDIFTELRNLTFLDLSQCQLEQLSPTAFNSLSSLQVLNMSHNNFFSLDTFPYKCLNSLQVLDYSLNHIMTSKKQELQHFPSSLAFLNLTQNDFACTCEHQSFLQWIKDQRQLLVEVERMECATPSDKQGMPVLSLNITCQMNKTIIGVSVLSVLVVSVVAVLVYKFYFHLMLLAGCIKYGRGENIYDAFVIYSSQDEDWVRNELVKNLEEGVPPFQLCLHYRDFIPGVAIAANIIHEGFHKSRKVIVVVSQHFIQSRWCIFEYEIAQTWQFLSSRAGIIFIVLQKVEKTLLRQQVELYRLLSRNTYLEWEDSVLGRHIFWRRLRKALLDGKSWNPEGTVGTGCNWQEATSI

Toll-like receptor 4 [4] = target: T2, Toll-like receptor 4; assay: Antagonist activity at TLR4 in human PBMC cells assessed as suppression of LPS-induced cytokine upregulation; type: functional, cell-based
Toll-like receptor 7 [5] = target: T1, Toll-like receptor 7; assay: Agonist activity at TLR7 in human PBMC cells assessed as stimulation of interferon release; type: functional, cell-based
Toll-like receptor 9 = target: T3, Toll-like receptor 9 (Homo sapiens, UniProt Q9NR96); assay: Antagonist activity at human TLR9 expressed in HEK293 cells assessed as blockade of CpG oligonucleotide-induced immune response by NF-kappaB luciferase reporter gene assay; type: functional, cell-based
T3 sequence (Q9NR96 whole entry): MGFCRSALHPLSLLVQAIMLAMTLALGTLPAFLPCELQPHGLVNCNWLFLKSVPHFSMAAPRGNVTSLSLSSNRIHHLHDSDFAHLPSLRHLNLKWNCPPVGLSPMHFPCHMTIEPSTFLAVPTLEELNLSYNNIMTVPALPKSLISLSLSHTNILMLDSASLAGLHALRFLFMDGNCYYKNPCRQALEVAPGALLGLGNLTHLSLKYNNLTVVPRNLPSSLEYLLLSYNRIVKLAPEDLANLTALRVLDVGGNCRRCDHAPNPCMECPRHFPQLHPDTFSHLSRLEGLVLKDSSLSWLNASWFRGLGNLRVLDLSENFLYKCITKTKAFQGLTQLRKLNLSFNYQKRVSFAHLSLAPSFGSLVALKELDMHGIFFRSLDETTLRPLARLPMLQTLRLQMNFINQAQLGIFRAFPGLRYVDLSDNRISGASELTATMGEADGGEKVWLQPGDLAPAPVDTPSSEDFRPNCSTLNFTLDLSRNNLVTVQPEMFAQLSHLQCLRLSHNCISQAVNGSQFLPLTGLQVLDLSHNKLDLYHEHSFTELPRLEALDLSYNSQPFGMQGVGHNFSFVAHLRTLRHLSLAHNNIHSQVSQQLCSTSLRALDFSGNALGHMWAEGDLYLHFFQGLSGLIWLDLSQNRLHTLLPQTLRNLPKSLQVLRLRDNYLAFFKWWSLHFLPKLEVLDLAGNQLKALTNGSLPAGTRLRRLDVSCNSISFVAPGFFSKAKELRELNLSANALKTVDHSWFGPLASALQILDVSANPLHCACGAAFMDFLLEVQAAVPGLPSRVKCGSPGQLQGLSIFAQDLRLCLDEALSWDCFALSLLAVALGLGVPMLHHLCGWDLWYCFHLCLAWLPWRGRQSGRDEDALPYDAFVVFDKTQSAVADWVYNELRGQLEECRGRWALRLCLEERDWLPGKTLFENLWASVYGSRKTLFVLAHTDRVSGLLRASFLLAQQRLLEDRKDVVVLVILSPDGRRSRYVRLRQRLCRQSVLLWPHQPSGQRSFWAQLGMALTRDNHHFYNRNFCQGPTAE

[6] = target: T4, Toll-like receptor 7 (Homo sapiens) (UniProt Q9NYK1); assay: as §1; type: functional
T4 sequence (whole entry): T1 sequence (Q9NYK1 whole entry)

Toll-like receptor 8 [7] = target: T5, Toll-like receptor 8 (Homo sapiens, UniProt Q9NR97); assay: Agonist activity at human TLR8 expressed in HEK cells by NF-kappaB luciferase reporter gene assay; type: functional, cell-based, HEK293
T5 sequence (Q9NR97 whole entry): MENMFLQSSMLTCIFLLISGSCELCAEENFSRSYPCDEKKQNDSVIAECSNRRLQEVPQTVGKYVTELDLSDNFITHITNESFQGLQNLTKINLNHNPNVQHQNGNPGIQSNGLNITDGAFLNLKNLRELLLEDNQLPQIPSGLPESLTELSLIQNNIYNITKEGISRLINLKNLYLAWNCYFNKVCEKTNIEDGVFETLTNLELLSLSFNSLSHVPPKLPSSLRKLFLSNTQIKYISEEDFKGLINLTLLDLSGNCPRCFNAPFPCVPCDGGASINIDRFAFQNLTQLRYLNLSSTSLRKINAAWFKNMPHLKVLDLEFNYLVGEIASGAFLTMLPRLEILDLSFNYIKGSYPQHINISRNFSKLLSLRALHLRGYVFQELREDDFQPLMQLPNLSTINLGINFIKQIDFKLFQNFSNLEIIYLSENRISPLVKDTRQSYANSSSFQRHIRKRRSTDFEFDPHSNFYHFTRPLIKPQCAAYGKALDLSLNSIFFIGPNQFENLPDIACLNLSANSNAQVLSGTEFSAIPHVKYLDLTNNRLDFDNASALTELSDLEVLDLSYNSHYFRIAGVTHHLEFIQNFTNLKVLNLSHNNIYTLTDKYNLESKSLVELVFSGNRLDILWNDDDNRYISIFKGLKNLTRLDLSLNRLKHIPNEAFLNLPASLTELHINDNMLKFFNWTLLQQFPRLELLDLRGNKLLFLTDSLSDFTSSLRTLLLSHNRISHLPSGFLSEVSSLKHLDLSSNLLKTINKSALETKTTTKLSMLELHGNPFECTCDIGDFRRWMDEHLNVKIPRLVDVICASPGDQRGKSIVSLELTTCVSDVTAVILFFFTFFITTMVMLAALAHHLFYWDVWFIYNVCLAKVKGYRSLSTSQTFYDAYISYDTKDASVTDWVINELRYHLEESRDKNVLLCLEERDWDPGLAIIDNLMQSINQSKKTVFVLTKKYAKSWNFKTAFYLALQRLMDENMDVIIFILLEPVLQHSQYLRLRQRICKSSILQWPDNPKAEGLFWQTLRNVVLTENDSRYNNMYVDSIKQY

Toll-like receptor 8 [8] = target: T5, Toll-like receptor 8; assay: Agonist activity at TLR8 in human PBMC cells assessed as TNFalpha level by ELISA; type: functional, cell-based
Toll-like receptor 2 [9] = target: T6, Toll-like receptor 2 (Homo sapiens, UniProt O60603); assay: Antagonist activity at human TLR2 expressed in HE293 cells co-transfected with pELAM by luciferase reporter gene assay; type: functional, cell-based, HEK293
T6 sequence (O60603 whole entry): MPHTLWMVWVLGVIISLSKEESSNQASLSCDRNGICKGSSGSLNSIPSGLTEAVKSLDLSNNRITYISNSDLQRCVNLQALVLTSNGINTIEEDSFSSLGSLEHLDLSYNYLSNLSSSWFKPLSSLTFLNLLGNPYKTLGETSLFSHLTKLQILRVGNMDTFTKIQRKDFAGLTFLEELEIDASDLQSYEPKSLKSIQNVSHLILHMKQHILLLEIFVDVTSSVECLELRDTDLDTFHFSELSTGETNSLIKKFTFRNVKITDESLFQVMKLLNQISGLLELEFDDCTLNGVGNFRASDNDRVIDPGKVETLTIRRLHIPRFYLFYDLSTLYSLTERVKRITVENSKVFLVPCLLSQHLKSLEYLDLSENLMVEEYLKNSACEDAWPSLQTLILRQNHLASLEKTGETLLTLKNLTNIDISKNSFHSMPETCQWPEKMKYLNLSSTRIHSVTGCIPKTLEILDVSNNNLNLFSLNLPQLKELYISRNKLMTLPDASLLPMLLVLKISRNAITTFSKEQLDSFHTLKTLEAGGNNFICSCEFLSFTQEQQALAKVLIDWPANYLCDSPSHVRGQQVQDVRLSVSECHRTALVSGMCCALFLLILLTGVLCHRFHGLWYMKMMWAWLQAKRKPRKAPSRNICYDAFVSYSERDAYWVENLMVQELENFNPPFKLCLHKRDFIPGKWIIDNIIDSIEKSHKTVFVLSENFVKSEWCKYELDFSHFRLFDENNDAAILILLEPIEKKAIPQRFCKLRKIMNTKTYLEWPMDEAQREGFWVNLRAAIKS

Homo sapiens = species on record: Homo sapiens; assay: Selectivity for human TLR2 over human TLR4
Toll-like receptor 4 [10] = target: T2, Toll-like receptor 4; assay: Antagonist activity at TLR4 in human HL60 cells assessed as inhibition of LPS-induced cytokine production; type: functional, cell-based, HL-60
Toll-like receptor 4 [11] = target: T2, Toll-like receptor 4; assay: Antagonist activity at human TLR4 assessed as inhibition of LPS-induced cytokine production in HL-60 cells
Toll-like receptor 2 [12] = target: T6, Toll-like receptor 2; assay: Inhibition of TLR2-mediated IL8 secretion in human THP1 cells; type: cell-based, THP-1

SMILES: Cc1ccc(Cn2c(=O)[nH]c3c(N)nc(-c4nccs4)cc32)cn1
EC50 (Toll-like receptor 7 [2]): 100 nM

SMILES: COCCOc1nc(N)c2[nH]c(=O)n(CCCN(Cc3ccc(CC(=O)OC)cc3)C(=O)CN3CCN(C)CC3)c2n1
EC50 (Toll-like receptor 7 [2]): < 20 nM

SMILES: Nc1ccccc1Oc1ccc2c(N)nsc2c1
IC50 (Toll-like receptor 4 [3]): 7000 nM
IC50 (Toll-like receptor 4 [4]): 3000 nM

SMILES: CCOC(=O)C1=CCCCC1S(=O)(=O)Nc1ccc(F)cc1Cl (centres undefined)
IC50 [1]: 3.2 nM

SMILES: COCCOc1nc(N)c2nc(NN)n(Cc3ccccc3)c2n1
EC50 (Toll-like receptor 7 [2]): 790 nM

SMILES: CN(C)CCNc1nc(-c2ccc(N3CCN(C)CC3)cc2)nc2ccccc12
IC50 (Toll-like receptor 9): 3 nM

SMILES: COCCOc1nc(N)c2[nH]c(=O)n(CCCN(Cc3ccc(CC(=O)OC)cc3)C(=O)CCC(=O)OC(C)(C)C)c2n1
EC50 (Toll-like receptor 7 [2]): < 20 nM

SMILES: CCOC(=O)C1=CCCC1S(=O)(=O)Nc1ccc(F)cc1Cl (centres undefined)
IC50 [1]: 110 nM

SMILES: CCN(CC)c1nc2c(N)nc(OCCOC)nc2n1Cc1ccccc1
Activity [6]: inactive

SMILES: CCCCCCCCCCCCCCCCCCCC(=O)N[C@@H](COP(=O)(O)OCCNC(=O)[C@@H](NC(=O)Cc1c[nH]c2ccccc12)[C@@H](C)CC)C(=O)NCCC(O)CCCCCCCCCCCCC (some centres undefined)
IC50 (Toll-like receptor 2 [9]): 460 nM
Selectivity ratio (Homo sapiens): > 25

SMILES: CCCCCC/C=C\CCCCCCCCCC(=O)N[C@H]1[C@H](OC[C@H]2O[C@H](OP(=O)(O)O)[C@H](NC(=O)CC(=O)CCCCCCCCCCC)[C@@H](OCCCCCCCCCC)[C@@H]2O)O[C@H](COC)[C@@H](OP(=O)(O)O)[C@@H]1OCC[C@@H](CCCCCCC)OC [ERITORAN TETRASODIUM]
IC50 (Toll-like receptor 4 [10]): 1.5 nM
IC50 (Toll-like receptor 4 [11]): 1.5 nM

SMILES: CCNc1nc2c(N)nc(OCCOC)nc2n1Cc1ccccc1
EC50 (Toll-like receptor 7 [2]): 4400 nM

SMILES: CCCCCCCCCCCCCCCCCCCC(=O)N[C@@H](COP(=O)(O)OCCNC(=O)[C@@H](NC(=O)Cc1c[nH]c2ccc(OCc3ccccc3)cc12)[C@@H](C)CC)C(=O)NCCC(O)CCCCCCCCCCCCC (some centres undefined)
IC50 (Toll-like receptor 2 [9]): 240 nM
Selectivity ratio (Homo sapiens): > 25

SMILES: CCCCCCCCCCCCCCCC(=O)N[C@@H](COP(=O)(O)OCCNC(=O)[C@@H](NC(=O)Cc1c[nH]c2ccc(-c3ccccc3)cc12)[C@@H](C)CC)C(=O)NCCCOC(=O)CCCCCCCCCCC
IC50 (Toll-like receptor 2 [9]): 230 nM

Next, values leading:

IC50 [1]: 160 nM
SMILES: CCOC(=O)C1=CCCCC1S(=O)(=O)Nc1ccc(Cl)cc1F (centres undefined)

IC50 [1]: 240 nM
SMILES: CCOC(=O)C1=CCCCCC1S(=O)(=O)Nc1ccc(F)cc1Cl (centres undefined)

EC50 (Toll-like receptor 7 [2]): 10 nM
EC50 (Toll-like receptor 7 [5]): 10 nM
SMILES: Nc1nc(NCc2ccccc2)nc2c1[nH]c(=O)n2Cc1cccc(CP(=O)(O)O)c1

EC50 (Toll-like receptor 7 [2]): > 10000 nM
SMILES: COCCOc1nc(N)c2nc(N)n(Cc3ccccc3)c2n1

IC50 [1]: > 10000 nM
SMILES: CCOC(=O)C1=CCCCC1S(=O)(=O)NC1=NCCS1 (centres undefined)

EC50 (Toll-like receptor 8 [7]): < 100000 nM
EC50 (Toll-like receptor 8 [8]): < 100000 nM
SMILES: CCOC(=O)N1CC(N)=Nc2ccccc2C1

IC50 [1]: > 10000 nM
SMILES: CCOC(=O)c1ccccc1S(=O)(=O)Nc1ccc(F)cc1Cl

EC50 (Toll-like receptor 8 [7]): < 100000 nM
EC50 (Toll-like receptor 8 [8]): < 100000 nM
SMILES: CCN(CC)C(=O)N1CC(N)=Nc2ccccc2C1

EC50 (Toll-like receptor 7 [2]): 10 nM
EC50 (Toll-like receptor 7 [5]): 10 nM
SMILES: COCCOc1nc(N)c2nc(S)n(Cc3cccc(CP(C)(=O)O)c3)c2n1

EC50 (Toll-like receptor 7 [2]): 3200 nM
SMILES: COCCOc1nc(N)c2nc(NCCCO)n(Cc3ccccc3)c2n1

IC50 (Toll-like receptor 2 [9]): 900 nM
SMILES: CCCCCCCCCCCCCC(=O)N[C@@H](COP(=O)(O)OCCNC(=O)[C@@H](NC(=O)Cc1ccc(O)cc1)[C@@H](C)C(=O)O)C(=O)NCCC(CCCCCCC)OC(=O)CCCCCCCCCCC (some centres undefined)

IC50 (Toll-like receptor 2 [12]): 5000 nM
SMILES: CCCCCCCCCCCCCC(=O)N[C@@H](CSC[C@H](NC(=O)CCCCCCCCCCCCC)C(=O)N[C@@H](CO)C(=O)N[C@@H](CCCCN)C(=O)N[C@@H](CCCCN)C(=O)N[C@@H](CCCCN)C(=O)N[C@@H](CCCCN)C(N)=O)C(=O)NCCCCCCCC (Myristoyl-C(X1)SKKKK-NH2)
